# Measurements taken from US8603762B2 (priority 2008, dated 2013).
# Like-named read-outs stand apart in the source and are kept apart here.
# Experiments:
# Format in all cases: cell-based
# [1] = system: HEK293T Gα16gustducin44 cells (that do not express TAS2R46)
# Procedure: (§1) At day 0, the HEK293T cell line expressing Gα16-gustducin44 and a TAS2R46 bitter taste receptor formed as described in examples 2b or 2c was seeded in antibiotic-free growth medium (standard DMEM with 10% (v/v) heat-inactivated fetal bovine serum, 2 mM L-glutamine[…]) into black wall/clear bottom 96-well plates, coated with poly(ethylenimine) (0.005% v/v) at a concentration of 15,000 cells per well and incubated for 48 hours in humidified atmosphere (37° C., 5% CO2).
# (§2) At the time of the assay, the growth medium was discarded and the cells were in humidified atmosphere (37° C., 5% CO2) for 1 hour with 50 μl of loading buffer consisting of 1.5 μM Fluo-4 AM and […] probenicid (Sigma-Aldrich, St. Louis, Mo., US) in DMEM.
# (§3) Afterwards, the 96-well plate was washed 5 times with 100 μl of assay buffer (130 mM NaCl, 5 mM KCl, 10 mM HEPES, 2 mM CaCl2, and 5 mM dextrose, pH 7.4) per well, using an automated plate washer (BioTek). The plate was further incubated for 30 minutes at room temperature in the dark to allow for complete de-esterification of the Fluo-4. Afterwards the plate was washed 5 times with 100 μl of assay buffer per well, and reconstituted with 100 μl of assay buffer per well.
# (§4) For assay reading, the plate was placed in a Fluorometric Imaging Plate Reader (FLIPR) (FLIPR-TETRA™, Molecular Devices, Sunnyvale, Calif., US), and receptor activation was initiated by addition of 20 μl of a tenfold concentrated agonist stock solution (to give the desired agonist end concentration when added to the 180 microliter assay buffer volume), which was prepared in assay buffer.
# (§5) Fluorescence was continuously monitored for 20 seconds to give a signal baseline (averaged to give F0) prior to agonist addition and for 120 seconds after agonist addition. The change in signal divided by F0 gives ΔF/F0 indicated in the table, with ΔF being the maximum signal occurring within the 120 seconds minus the minimum signal (occurring within the 120 seconds after agonist addition.
# (§6) The obtained calcium signals were corrected for the response of cells expressing only the G Protein α subunit (Gα16-gustducin44) and normalized to the fluorescence of cells prior to the stimulus using ΔF/F0 (Fmax−Fmin/F0).
# human TAS2R46 [2] = molecular target: T1, human TAS2R46 (Homo sapiens, UniProt P59540)
# T1 construct: RSS tag (first 45 amino acids of rat somatostatin receptor subtype 3, plus EcoRI site residues) (N); expressed in transfected cells
# T1 sequence (P59540 with tags, fused parts or gaps): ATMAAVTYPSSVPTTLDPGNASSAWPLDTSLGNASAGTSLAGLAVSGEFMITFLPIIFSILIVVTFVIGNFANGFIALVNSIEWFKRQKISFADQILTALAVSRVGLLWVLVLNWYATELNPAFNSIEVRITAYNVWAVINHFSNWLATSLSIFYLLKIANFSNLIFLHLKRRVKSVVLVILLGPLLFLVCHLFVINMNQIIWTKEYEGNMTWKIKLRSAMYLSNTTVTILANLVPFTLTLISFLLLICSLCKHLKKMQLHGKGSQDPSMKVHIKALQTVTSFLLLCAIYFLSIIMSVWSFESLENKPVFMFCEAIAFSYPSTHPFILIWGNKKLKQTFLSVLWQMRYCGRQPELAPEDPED
# Procedure: as §1, §2, §3, §4, §5, §6
# human TAS2R46 [3] = molecular target: T1, human TAS2R46; assay: Fluo-4 calcium assay, HEK293T/Gα16-gustducin44 cells transiently expressing TAS2R46
# Procedure: In a second tube, 0.3 μl of Lipofectamine 2000 was diluted in 12.5 μl of DMEM and incubated for 5 min at room temperature. After the 5 min, both solutions were mixed and incubated for 20 min at RT. […] This mixture was then replaced with an antibiotic-free, serum-containing DMEM. […]
# as §4
# Fluorescence was continuously monitored for 20 seconds to give a signal baseline (averaged to give F0) prior to agonist addition and for 120 seconds after agonist addition. […]
# as §6
# [4] = system: more than 15 human TAS2Rs; assay: Activation of other human TAS2Rs; conditions: more than 15 human TAS2Rs tested
smiles,measurement,setting,value
COc1ccc2c(c1)[C@]13CCCC[C@@H]1[C@H](C2)N(C)CC3 [dextromethorphan],Neg. Control ΔF/F0,"[1]; dextromethorphan 0.254 μM, cells expressing only Gα16gustducin44",0.050
same,Neg. Control ΔF/F0,"[1]; dextromethorphan 0.508 μM, cells expressing only Gα16gustducin44",0.044
same,Neg. Control ΔF/F0,"[1]; dextromethorphan 1.016 μM, cells expressing only Gα16gustducin44",0.053
same,Neg. Control ΔF/F0,"[1]; dextromethorphan 2.031 μM, cells expressing only Gα16gustducin44",0.038
same,Neg. Control ΔF/F0,"[1]; dextromethorphan 4.063 μM, cells expressing only Gα16gustducin44",0.041
same,Neg. Control ΔF/F0,"[1]; dextromethorphan 8.125 μM, cells expressing only Gα16gustducin44",0.044
same,Neg. Control ΔF/F0,"[1]; dextromethorphan 16.250 μM, cells expressing only Gα16gustducin44",0.067
same,Neg. Control ΔF/F0,"[1]; dextromethorphan 65.000 μM, cells expressing only Gα16gustducin44",0.312
same,change in signal in the negative control (in words),[1]; host cells expressing only Gα16-gustducin44,No significant change
same,calcium signaling upon addition of agonist (in words),human TAS2R46 [2]; cells stably expressing human TAS2R46,significant increase in calcium signaling
same,EC50,"human TAS2R46 [2]; stable cell line, nonlinear regression of ΔF/F0, read-out: calculated EC50 value for TAS2R46",31 µM
same,calcium signaling upon addition of agonist (in words),human TAS2R46 [3],significant concentration-dependent increase in calcium signaling
same,activation of other human TAS2Rs (in words),[4],not to be activated
O=C1C[C@@H]2OCC=C3CN4CC[C@]56c7ccccc7N1[C@H]5[C@H]2[C@H]3C[C@H]46 [strychnine],Neg. Control ΔF/F0,"[1]; strychnine 0.977 μM, cells without TAS2R46",0.060
same,Neg. Control ΔF/F0,"[1]; strychnine 1.953 μM, cells without TAS2R46",0.065
same,Neg. Control ΔF/F0,"[1]; strychnine 3.906 μM, cells without TAS2R46",0.071
same,Neg. Control ΔF/F0,"[1]; strychnine 7.813 μM, cells without TAS2R46",0.070
same,Neg. Control ΔF/F0,"[1]; strychnine 15.63 μM, cells without TAS2R46",0.063
same,Neg. Control ΔF/F0,"[1]; strychnine 31.25 μM, cells without TAS2R46",0.088
same,Neg. Control ΔF/F0,"[1]; strychnine 62.50 μM, cells without TAS2R46",0.091
same,Neg. Control ΔF/F0,"[1]; strychnine 125.0 μM, cells without TAS2R46",0.088
same,Neg. Control ΔF/F0,"[1]; strychnine 250.0 μM, cells without TAS2R46",0.181
